Reference: US20160158280A1, “A METHOD FOR ORGAN ARREST, PROTECTION AND PRESERVATION AND REDUCING TISSUE INJURY” (priority 2013, published 2016)
Values joined by “and” are separate entries in the source; they are usually repeats but may differ in a detail not shown here. Equal values may be shown once.

Key:
[1] = target: human NK(1) receptor (Homo sapiens, UniProt P25103); details: cited from earlier work
[2] = tested on: humans; details: oral and/or intravenous 10, 25, 50, and 100 mg/kg body weight; cited from earlier work
[3] = 400 mg daily tablets; cited from earlier work
[4] = tested on: isolated guinea-pig mesenteric artery; assay: Isolated guinea-pig mesenteric artery relaxation (pressure myograph, videomicroscopy); details: for relaxation of isolated intact mesenteric artery: AVP-constricted, 0.001 to 1 mM luminal or abluminal; for abluminal versus luminal relaxation: intact artery, adenosine: at 10 μM and 100 μM
Experimental: Male guinea pigs (250-300 g) were anesthetised and placed in a cradle and the abdomen opened. Second order mesenteric artery branches were isolated and mounted in a pressure myograph (see FIG. 4) under constant pressure of 60 mmHg and perfusion (luminal flow) of 100 uL/min with Krebs-Henseleit buffer (37° C.). Artery diameter was continuously measured using videomicroscopy (see FIG. 4). For the relaxation/vasodilation experiments arteries were equilibrated and then constricted with 10^−8 M arginine vasopressin (AVP). Adenosine, lidocaine or adenosine-lidocaine together were administered 2) luminally and 2) abluminally and concentration curves were obtained. Stock solutions of adenosine and lidocaine alone or adenosine-lidocaine combined were made in deionized water to 20 mM. A range of volumes were pipetted to provide contact concentrations with the vessel lumen or outer wall that ranged from 0.001 to 1 mM. At the end of experiments, arteries were dilated using calcium-free solution to obtain 100% relaxation. A number of arteries were denuded by introducing 5 ml air into the lumen with flow rate 1000 μl/min. The air outflow was then clamped until the intraluminal pressure reached 70 mmHg, flow rate was reduced to 2 μl/min and the vessel remained pressurized for 10 minutes

[5] = cited from earlier work

human NK(1) receptor, sequence (P25103 whole entry): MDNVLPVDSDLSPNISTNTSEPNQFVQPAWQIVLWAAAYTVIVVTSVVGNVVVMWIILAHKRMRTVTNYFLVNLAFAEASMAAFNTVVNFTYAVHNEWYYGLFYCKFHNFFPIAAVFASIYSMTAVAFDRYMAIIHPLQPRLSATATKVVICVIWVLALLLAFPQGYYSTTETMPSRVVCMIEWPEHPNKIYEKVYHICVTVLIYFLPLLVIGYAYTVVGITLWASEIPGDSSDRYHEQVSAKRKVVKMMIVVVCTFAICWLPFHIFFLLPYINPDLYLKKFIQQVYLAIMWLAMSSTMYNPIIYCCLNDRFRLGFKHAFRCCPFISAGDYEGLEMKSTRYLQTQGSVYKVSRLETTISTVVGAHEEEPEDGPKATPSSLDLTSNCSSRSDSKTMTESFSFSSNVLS

Structure (SMILES) | relaxation of isolated intact mesenteric artery [4] | relaxation of mesenteric artery ([4]; endothelium absent (denuded)) | relaxation of mesenteric artery ([4]; endothelium present) | abluminal versus luminal relaxation [4] | also measured
Cc1cccc(C)c1NC(=O)C[C@H]1CCN(C(=O)c2cc(C(F)(F)F)cc(C(F)(F)F)c2)[C@@H](Cc2ccccc2)C1.O=C(O)C[C@H](O)C(=O)O (relative stereo) [R116301, (2R-trans)-4-[1-[3,5-bis(trifluoromethyi)benzoyl]-2-(phenylmethyl)-4-piperidinyl]-N-(2,6-dimethylphenyl)-1-acetamide (S)-Hydroxybutanedioate] | – | – | – | – | selectivity toward NK(2) and NK(3) receptors [1]: over 200 fold; Ki ([1]; human NK(1) receptor): 0.45 nM
NC(=O)c1ncn([C@@H]2O[C@H](CO)[C@@H](O)[C@H]2O)c1N [Acadesine, 5-amino-4-imidazole carboxamide ribonucleoside] | – | – | – | – | safety in humans [2]: safe in humans
OCCN(CCO)c1nc(N2CCCCC2)c2nc(N(CCO)CCO)nc(N3CCCCC3)c2n1 [Dipyridamole] | – | – | – | – | plasma level [3]: about 0.4 μg/ml and 0.8 μM
Nc1ncnc2c1ncn2[C@@H]1O[C@H](CO)[C@@H](O)[C@H]1O [adenosine] | increased relaxation | relaxed the mesenteric artery in a dose dependent manner | relaxed the mesenteric artery in a dose dependent manner | significantly more relaxation | half life in the blood [5]: about 10 seconds
CCN(CC)CC(=O)Nc1c(C)cccc1C [lidocaine] | failed to produce relaxation | relaxed the artery | did not significantly change mesenteric artery diameter | no significant difference | –
